Experimental data as given in patent US10196403B2, “Compounds and compositions and uses thereof” (Sunovion Pharmaceuticals Inc., priority 2016, dated 2019).
Where two headings read alike, the source gives them in different places.

Tested on: mice
Experiment: Neuropharmacological Assay (SmartCube)
Assay type: in vivo
Settings: for minimal effective dose: Mus musculus, read-out: POTENCY (minimal effective dose, MED); for AD: ADHD (SmartCube probability) / AG: analgesic (SmartCube probability) / AX: anxiolytic (SmartCube probability) / CE: cognitive enhancer (SmartCube probability) / DP: anti-depressant (SmartCube probability) / MS: mood stabilizer (SmartCube probability) / PS: anti-psychotic (SmartCube probability) / SD: sedative hypnotic (SmartCube probability) / UN: uncharacterized CNS activity (SmartCube probability): mice, i.p. 15 min before test, most efficacious dose(s) of 3 doses
Summary of the method: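 Compounds in NMP/PEG/propylene glycol given i.p. 15 min before automated video-based behavioral testing, at 3 doses; behavioral signature compared with a reference-compound database to give probability per drug class, reported at most efficacious dose. MED = dose (mpk) giving ≥50% total activity; doses typically 0.3–30 mpk.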

[1] = MED = dose having 50% or more total activity in SmartCube

With `CNC[C@H]1OCC(C)(C)c2ccccc21` [Example 23, (S)-1-(4,4-dimethylisochroman-1-yl)-N-methylmethanamine] the minimal effective dose [1] was 3 to 10 mg/kg, the “AD: ADHD (SmartCube probability)” value was “+ (LOQ≤ + <5%)” and the “AG: analgesic (SmartCube probability)” value was “++ (5%≤ ++ <25%)”. The “AX: anxiolytic (SmartCube probability)” value was “++ (5%≤ ++ <25%)”, the “CE: cognitive enhancer (SmartCube probability)” value (shortened to “CE: cognitive enhancer”) was “++ (5%≤ ++ <25%)” and the “DP: anti-depressant (SmartCube probability)” value (“DP: anti-depressant” for short) was “++ (5%≤ ++ <25%)”. For the same compound, the “MS: mood stabilizer (SmartCube probability)” value (“MS: mood stabilizer” for short) was “+ (LOQ≤ + <5%)”, the “PS: anti-psychotic (SmartCube probability)” value (“PS: anti-psychotic” for short) was “+++ (25%≤ +++ <50%)” and the “SD: sedative hypnotic (SmartCube probability)” value (“SD: sedative hypnotic” below) was “++ (5%≤ ++ <25%)”. The “UN: uncharacterized CNS activity (SmartCube probability)” value (from here on “UN: uncharacterized CNS activity”) was “+ (LOQ≤ + <5%)”.

With `CNC[C@H]1OC[C@@H](C)c2ccccc21` [Example 19, N-methyl-1-((1S,4S)-4-methylisochroman-1-yl)methanamine] the minimal effective dose [1] was 3 to 10 mg/kg, the “AD: ADHD (SmartCube probability)” value was “+ (LOQ≤ + <5%)” and the “AG: analgesic (SmartCube probability)” value was “++ (5%≤ ++ <25%)”. The “AX: anxiolytic (SmartCube probability)” value was “++ (5%≤ ++ <25%)”, the “CE: cognitive enhancer” value was “++ (5%≤ ++ <25%)” and the “DP: anti-depressant” value was “++ (5%≤ ++ <25%)”. For the same compound, the “MS: mood stabilizer” value was “++ (5%≤ ++ <25%)”, the “PS: anti-psychotic” value was “++ (5%≤ ++ <25%)” and the “SD: sedative hypnotic” value was “+ (LOQ≤ + <5%)”. For the same compound, the “UN: uncharacterized CNS activity” value was “++ (5%≤ ++ <25%)”.

For `CNC[C@H]1OCCc2cccc(C)c21` [Example 40, (S)-N-methyl-1-(8-methylisochroman-1-yl)methanamine], the minimal effective dose [1] was less than 3 mg/kg, the “AD: ADHD (SmartCube probability)” value was “+ (LOQ≤ + <5%)” and the “AG: analgesic (SmartCube probability)” value was “+ (LOQ≤ + <5%)”. For the same compound, the “AX: anxiolytic (SmartCube probability)” value was “+++ (25%≤ +++ <50%)”, the “CE: cognitive enhancer” value was “+ (LOQ≤ + <5%)” and the “DP: anti-depressant” value was “++ (5%≤ ++ <25%)”. For the same compound, the “MS: mood stabilizer” value was “+ (LOQ≤ + <5%)”, the “PS: anti-psychotic” value was “++ (5%≤ ++ <25%)” and the “SD: sedative hypnotic” value was “++ (5%≤ ++ <25%)”. For the same compound, the “UN: uncharacterized CNS activity” value was “+++ (25%≤ +++ <50%)”.

In the case of `NC[C@H]1OCCc2c1ccc1c2OCO1` [Example 11, (S)-(8,9-dihydro-6H-[1,3]dioxolo[4,5-f]isochromen-6-yl)methanamine], the minimal effective dose [1] is reported as 3 to 10 mg/kg, the “AD: ADHD (SmartCube probability)” value is reported as “++ (5%≤ ++ <25%)” and the “AG: analgesic (SmartCube probability)” value is reported as “+ (LOQ≤ + <5%)”. For the same compound, the “AX: anxiolytic (SmartCube probability)” value was “+ (LOQ≤ + <5%)”, the “CE: cognitive enhancer” value was “+ (LOQ≤ + <5%)” and the “DP: anti-depressant” value was “++++ (50%≤ ++++)”. The “MS: mood stabilizer” value was “+ (LOQ≤ + <5%)”, the “PS: anti-psychotic” value was “+ (LOQ≤ + <5%)” and the “SD: sedative hypnotic” value was “+ (LOQ≤ + <5%)”. The “UN: uncharacterized CNS activity” value was “+ (LOQ≤ + <5%)”.

In the case of `CNC[C@H]1OCCc2ccc3c(c21)CCO3` [Example 108, (S)-N-methyl-1-(3,4,8,9-tetrahydro-1H-furo[2,3-h]isochromen-1-yl)methanamine], the minimal effective dose [1] is reported as 3 to 10 mg/kg, the “AD: ADHD (SmartCube probability)” value is reported as “+ (LOQ≤ + <5%)” and the “AG: analgesic (SmartCube probability)” value is reported as “+ (LOQ≤ + <5%)”. For the same compound, the “AX: anxiolytic (SmartCube probability)” value was “+ (LOQ≤ + <5%)”, the “CE: cognitive enhancer” value was “+ (LOQ≤ + <5%)” and the “DP: anti-depressant” value was “++ (5%≤ ++ <25%)”. For the same compound, the “MS: mood stabilizer” value was “+ (LOQ≤ + <5%)”, the “PS: anti-psychotic” value was “++ (5%≤ ++ <25%)” and the “SD: sedative hypnotic” value was “+ (LOQ≤ + <5%)”. For the same compound, the “UN: uncharacterized CNS activity” value was “++++ (50%≤ ++++)”.

In the case of `CNC[C@@H]1OCCc2cccc(C#N)c21` [Example 45, (R)-1-((methylamino)methyl)isochromane-8-carbonitrile], the minimal effective dose [1] is reported as 3 to 10 mg/kg, the “AD: ADHD (SmartCube probability)” value is reported as “+ (LOQ≤ + <5%)” and the “AG: analgesic (SmartCube probability)” value is reported as “++ (5%≤ ++ <25%)”. For the same compound, the “AX: anxiolytic (SmartCube probability)” value was “++ (5%≤ ++ <25%)”, the “CE: cognitive enhancer” value was “++ (5%≤ ++ <25%)” and the “DP: anti-depressant” value was “+ (LOQ≤ + <5%)”. The “MS: mood stabilizer” value was “+ (LOQ≤ + <5%)”, the “PS: anti-psychotic” value was “++ (5%≤ ++ <25%)” and the “SD: sedative hypnotic” value was “+ (LOQ≤ + <5%)”. The “UN: uncharacterized CNS activity” value was “++++ (50%≤ ++++)”.

For `Cc1cccc2c1CCO[C@@H]2CN` [Example 72, (S)-(5-methylisochroman-1-yl)methanamine], the minimal effective dose [1] was 3 to 10 mg/kg, the “AD: ADHD (SmartCube probability)” value was “+ (LOQ≤ + <5%)” and the “AG: analgesic (SmartCube probability)” value was “+ (LOQ≤ + <5%)”. For the same compound, the “AX: anxiolytic (SmartCube probability)” value was “++ (5%≤ ++ <25%)”, the “CE: cognitive enhancer” value was “+ (LOQ≤ + <5%)” and the “DP: anti-depressant” value was “++ (5%≤ ++ <25%)”. The “MS: mood stabilizer” value was “+ (LOQ≤ + <5%)”, the “PS: anti-psychotic” value was “+ (LOQ≤ + <5%)” and the “SD: sedative hypnotic” value was “+ (LOQ≤ + <5%)”. The “UN: uncharacterized CNS activity” value was “+++ (25%≤ +++ <50%)”.

In the case of `CNC[C@@H]1OCCc2ccc3c(c21)COC3` [Example 109], the “POTENCY (minimal effective dose, MED)” value [1] is reported as “B (>3 to 10 mpk)”, the “AD: ADHD (SmartCube probability)” value is reported as “+ (LOQ≤ + <5%)” and the “AG: analgesic (SmartCube probability)” value is reported as “+ (LOQ≤ + <5%)”. The “AX: anxiolytic (SmartCube probability)” value was “++ (5%≤ ++ <25%)”, the “CE: cognitive enhancer” value was “+ (LOQ≤ + <5%)” and the “DP: anti-depressant” value was “++ (5%≤ ++ <25%)”. The “MS: mood stabilizer” value was “+ (LOQ≤ + <5%)”, the “PS: anti-psychotic” value was “++++ (50%≤ ++++)” and the “SD: sedative hypnotic” value was “++ (5%≤ ++ <25%)”. The “UN: uncharacterized CNS activity” value was “++ (5%≤ ++ <25%)”.

In the case of `CNC[C@H]1OCC(F)(F)c2ccccc21` [Example 27, (S)-1-(4,4-difluoroisochroman-1-yl)-N-methylmethanamine], the minimal effective dose [1] is reported as 10 to 30 mg/kg, the “AD: ADHD (SmartCube probability)” value is reported as “+ (LOQ≤ + <5%)” and the “AG: analgesic (SmartCube probability)” value is reported as “++ (5%≤ ++ <25%)”. The “AX: anxiolytic (SmartCube probability)” value was “++ (5%≤ ++ <25%)”, the “CE: cognitive enhancer” value was “++ (5%≤ ++ <25%)” and the “DP: anti-depressant” value was “++ (5%≤ ++ <25%)”. The “MS: mood stabilizer” value was “+ (LOQ≤ + <5%)”, the “PS: anti-psychotic” value was “+ (LOQ≤ + <5%)” and the “SD: sedative hypnotic” value was “+ (LOQ≤ + <5%)”. The “UN: uncharacterized CNS activity” value was “+++ (25%≤ +++ <50%)”.

`CNC[C@@H]1OCC(C)(C)c2ccccc21` [Example 24, (R)-1-(4,4-dimethylisochroman-1-yl)-N-methylmethanamine] was tested, and the minimal effective dose [1] was less than 3 mg/kg, the “AD: ADHD (SmartCube probability)” value was “+ (LOQ≤ + <5%)” and the “AG: analgesic (SmartCube probability)” value was “++ (5%≤ ++ <25%)”. For the same compound, the “AX: anxiolytic (SmartCube probability)” value was “++ (5%≤ ++ <25%)”, the “CE: cognitive enhancer” value was “++ (5%≤ ++ <25%)” and the “DP: anti-depressant” value was “++ (5%≤ ++ <25%)”. For the same compound, the “MS: mood stabilizer” value was “+ (LOQ≤ + <5%)”, the “PS: anti-psychotic” value was “+++ (25%≤ +++ <50%)” and the “SD: sedative hypnotic” value was “++ (5%≤ ++ <25%)”. For the same compound, the “UN: uncharacterized CNS activity” value was “+++ (25%≤ +++ <50%)”.

With `CNC[C@H]1OC[C@@H](O)c2cccc(F)c21` [Example 98, (1S,4S)-8-fluoro-1-((methylamino)methyl)isochroman-4-ol] the minimal effective dose [1] was greater than 30 mg/kg, the “AD: ADHD (SmartCube probability)” value was “+ (LOQ≤ + <5%)” and the “AG: analgesic (SmartCube probability)” value was “+ (LOQ≤ + <5%)”. For the same compound, the “AX: anxiolytic (SmartCube probability)” value was “+ (LOQ≤ + <5%)”, the “CE: cognitive enhancer” value was “+ (LOQ≤ + <5%)” and the “DP: anti-depressant” value was “+ (LOQ≤ + <5%)”. For the same compound, the “MS: mood stabilizer” value was “+ (LOQ≤ + <5%)”, the “PS: anti-psychotic” value was “+ (LOQ≤ + <5%)” and the “SD: sedative hypnotic” value was “+ (LOQ≤ + <5%)”. The “UN: uncharacterized CNS activity” value was “+ (LOQ≤ + <5%)”.

In the case of `Cc1cccc2c1[C@@H](CN)OCC2` [Example 74, (S)-(8-methylisochroman-1-yl)methanamine], the minimal effective dose [1] is reported as 10 to 30 mg/kg, the “AD: ADHD (SmartCube probability)” value is reported as “+ (LOQ≤ + <5%)” and the “AG: analgesic (SmartCube probability)” value is reported as “+ (LOQ≤ + <5%)”. For the same compound, the “AX: anxiolytic (SmartCube probability)” value was “++ (5%≤ ++ <25%)”, the “CE: cognitive enhancer” value was “+ (LOQ≤ + <5%)” and the “DP: anti-depressant” value was “+ (LOQ≤ + <5%)”. The “MS: mood stabilizer” value was “+ (LOQ≤ + <5%)”, the “PS: anti-psychotic” value was “+ (LOQ≤ + <5%)” and the “SD: sedative hypnotic” value was “++ (5%≤ ++ <25%)”. The “UN: uncharacterized CNS activity” value was “+++ (25%≤ +++ <50%)”.

In the case of `Fc1cccc2c1[C@H](CNC1CCC1)OCC2` [Example 97, (R)-N-((8-fluoroisochroman-1-yl)methyl)cyclobutanamine], the minimal effective dose is reported as 3 to 10 mg/kg, the “AD: ADHD (SmartCube probability)” value is reported as “++ (5%≤ ++ <25%)” and the “AG: analgesic (SmartCube probability)” value is reported as “+ (LOQ≤ + <5%)”. For the same compound, the “AX: anxiolytic (SmartCube probability)” value was “++ (5%≤ ++ <25%)”, the “CE: cognitive enhancer” value was “+ (LOQ≤ + <5%)” and the “DP: anti-depressant” value was “+++ (25%≤ +++ <50%)”. For the same compound, the “MS: mood stabilizer” value was “+ (LOQ≤ + <5%)”, the “PS: anti-psychotic” value was “++ (5%≤ ++ <25%)” and the “SD: sedative hypnotic” value was “+ (LOQ≤ + <5%)”. The “UN: uncharacterized CNS activity” value was “+++ (25%≤ +++ <50%)”.

`CNC[C@@H]1OCCc2ccc3c(c21)OC(F)(F)O3` [Example 101, (R)-1-(2,2-difluoro-6,9-dihydro-7H-[1,3]dioxolo[4,5-h]isochromen-9-yl)-N-methylmethanamine] was tested, and the minimal effective dose [1] was 3 to 10 mg/kg, the “AD: ADHD (SmartCube probability)” value was “+ (LOQ≤ + <5%)” and the “AG: analgesic (SmartCube probability)” value was “+++ (25%≤ +++ <50%)”. The “AX: anxiolytic (SmartCube probability)” value was “++ (5%≤ ++ <25%)”, the “CE: cognitive enhancer” value was “++ (5%≤ ++ <25%)” and the “DP: anti-depressant” value was “+ (LOQ≤ + <5%)”. For the same compound, the “MS: mood stabilizer” value was “+ (LOQ≤ + <5%)”, the “PS: anti-psychotic” value was “++ (5%≤ ++ <25%)” and the “SD: sedative hypnotic” value was “+ (LOQ≤ + <5%)”. For the same compound, the “UN: uncharacterized CNS activity” value was “+ (LOQ≤ + <5%)”.
